Reference: patent US7199129B2, “Derivatives of morphine-like opioid compounds” (Monash University, priority 2001, dated 2007)
Values joined by “and” are separate entries in the source; they are usually repeats but may differ in a detail not shown here. Equal entries are not always repeated.

How the values were obtained:
[1] = system: ICR mice; assay: Phenylquinone-induced writhing model in mice (Example 16); format: in vivo; conditions: IP; for No. of Writhings Individual: individual mice
Experimental: KRS-5-150 was evaluated for possible analgesic activity in the phenylquinone-induced writhing model in mice (Siegmund et al, 1957). A serial 2-fold dosage variance was used in the test, from 128 mg/kg to 1 mg/kg (8 doses in total). Groups of 3 male or female ICR mice weighing 22±2 g were employed. A serial 2-fold dosage variance was used in the test (8 doses in total). Variant doses (1, 2, 4, 8, 16, 32, 64 and 128 mg/kg) of test substances were administered intraperitoneally (IP). A vehicle of 2% Tween 80 in 0.9% NaCl was used for the intraperitoneal injection. The control group received vehicle alone. […] A reduction in the number of writhes by 50 percent or more (≧50%) relative to the vehicle-treated group indicated possible analgesic activity.

[2] = system: ICR mice; assay: Radiant heat-induced tail-flick response assay in mice; format: in vivo; conditions: IP; for % Inhibition (prolongation of tail-flick response time): 30 minutes; for Response Time (Seconds) 30 Mins., Average / Response Time (Seconds) 30 Mins.: 30 minutes after administration; for Response Time (Seconds) 30 Mins. / Response Time (Seconds) 0 Time: individual mice; for Response Time (Seconds) 30 Mins.: cut-off 15 seconds; for Response Time (Seconds) 0 Time / Response Time (Seconds) 0 Time, Average: pre-treatment (0 minutes)
Experimental: For the tail-flick assay, groups of four male or female ICR mice weighing 22±2 g were used, and the test compound dissolved in 2% Tween 80/0.9% NaCl was administered intraperitoneally. The compound was administered intraperitoneally at 4, 8, 16 or 32 mg/kg, using 2% Tween 80—0.9% NaCl as the vehicle. Controls received vehicle alone. Morphine-HCl at a dose of 10 mg/kg was used as a positive control. At the pre-treatment point (0 minutes) a focused beam of radiant heat was applied to the middle dorsal surface of the tail to elicit a tail-flick response. […] The time required to elicit a pain response was recorded for each animal at 30 minutes following administration of the test compound. A prolongation of 50% or more ≧50% of the time required to elicit tail-flick response indicated possible analgesic activity.

[3] = molecular target: T1, human δ-opiate receptor (Homo sapiens, UniProt P41143); assay: In vitro opiate receptor radioligand binding assay, δ; conditions: test compound 10 μM
T1 construct: purchased MDS Pharma Services 260110
T1 sequence (P41143 whole entry): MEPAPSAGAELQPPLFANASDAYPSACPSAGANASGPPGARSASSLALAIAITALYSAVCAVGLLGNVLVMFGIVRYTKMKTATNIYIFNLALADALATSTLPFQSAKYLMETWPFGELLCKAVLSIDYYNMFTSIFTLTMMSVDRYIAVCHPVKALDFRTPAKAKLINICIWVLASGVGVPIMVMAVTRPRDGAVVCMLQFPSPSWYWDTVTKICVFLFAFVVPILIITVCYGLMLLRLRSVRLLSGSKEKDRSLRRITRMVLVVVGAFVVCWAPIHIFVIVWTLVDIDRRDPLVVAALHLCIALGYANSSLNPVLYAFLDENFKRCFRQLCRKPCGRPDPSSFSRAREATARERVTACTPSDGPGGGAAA
Experimental: (§1) To characterise the target specificity of the compounds, KRS-5-150 and KRS-6-26 were tested at a concentration of 10 μM for their ability to inhibit the binding of a radioligand to human δ-, κ-, or μ-opiate receptors in vitro using commercially available assays (MDS Pharma Services; assay catalogue numbers 260110, 260210 and 260410 respectively).
(§2) Percentage inhibition of radioligand binding to human opioid receptors in vitro by test compounds (10 μM)

[4] = molecular target: T2, human μ-opiate receptor (Homo sapiens, UniProt P35372); assay: In vitro opiate receptor radioligand binding assay, μ; conditions: test compound 10 μM
T2 construct: purchased MDS Pharma Services 260410
T2 sequence (P35372 whole entry): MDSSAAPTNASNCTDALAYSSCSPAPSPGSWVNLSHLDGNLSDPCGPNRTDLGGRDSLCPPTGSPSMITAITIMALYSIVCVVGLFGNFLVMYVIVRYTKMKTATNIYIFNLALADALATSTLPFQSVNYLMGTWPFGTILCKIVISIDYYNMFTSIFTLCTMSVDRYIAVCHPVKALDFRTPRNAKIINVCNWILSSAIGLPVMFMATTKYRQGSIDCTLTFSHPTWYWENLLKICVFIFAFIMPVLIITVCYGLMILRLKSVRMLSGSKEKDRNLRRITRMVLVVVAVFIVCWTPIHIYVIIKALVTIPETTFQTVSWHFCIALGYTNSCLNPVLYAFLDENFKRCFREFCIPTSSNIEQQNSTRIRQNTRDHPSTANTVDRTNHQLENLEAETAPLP
Experimental: as §1, §2

[5] = system: ICR mice; assay: Straub tail behaviour (indicator of CNS activity) and observed signs in test animals
Description: The Straub test is an indicator of CNS activity.
The tail-flick test is thought to involve central nervous system activity, and therefore provides further confirmation of the Straub tail test.

In the case of `Oc1ccc2c3c1O[C@H]1[C@@H](O)C=C[C@H]4[C@@H](C2)N(CCCNC(=Nc2ccccc2)Nc2ccccc2)CC[C@@]341` [KRS-5-150, (5α,6α)-7,8 didehydro-4,5-epoxy-17-(N,N′-bisphenylcarboxamidino-3-aminopropyl)morphinan,3,6-diol], the “% Inhibition” value ([1]; 1 mg/kg, Table 1) is reported as 33%, the “No. of Writhings Average” value ([1]; 1 mg/kg, Table 1) is reported as 10 and the “No. of Writhings Individual” value ([1]; 1 mg/kg, Table 1) is reported as 14 and 0 and 16. For the same compound, the “% Inhibition” value ([1]; 2 mg/kg, Table 1) was 73%, the “No. of Writhings Average” value ([1]; 2 mg/kg, Table 1) was 4 and the “No. of Writhings Individual” value ([1]; 2 mg/kg, Table 1) was 8 and 1 and 4. For the same compound, the “% Inhibition” value ([1]; 4 mg/kg, Table 1) was 80%, the “No. of Writhings Average” value ([1]; 4 mg/kg, Table 1) was 3 and the “No. of Writhings Individual” value ([1]; 4 mg/kg, Table 1) was 0 and 7 and 3. The “% Inhibition” value ([1]; 8 mg/kg, Table 1) was 87%, the “No. of Writhings Average” value ([1]; 8 mg/kg, Table 1) was 2 and the “No. of Writhings Individual” value ([1]; 8 mg/kg, Table 1) was 4 and 0 and 2. The “% Inhibition” value ([1]; 16 mg/kg, Table 1) was 80%, the “No. of Writhings Average” value ([1]; 16 mg/kg, Table 1) was 3 and the “No. of Writhings Individual” value ([1]; 16 mg/kg, Table 1) was 0 and 4 and 5. The “% Inhibition” value ([1]; 32 mg/kg, Table 1) was 100%, the “No. of Writhings Average” value ([1]; 32 mg/kg, Table 1) was 0 and the “No. of Writhings Individual” value ([1]; 32 mg/kg, Table 1) was 0 (2×) and 1. The “% Inhibition” value ([1]; 64 mg/kg, Table 1) was 100%, the “No. of Writhings Average” value ([1]; 64 mg/kg, Table 1) was 0 and the “No. of Writhings Individual” value ([1]; 64 mg/kg, Table 1) was 0. The “died (animals of group of 3)” value ([1]; 128 mg/kg, Table 1) was 2/3 died, the “No. of Writhings Individual” value ([1]; 128 mg/kg, Table 1) was 0 and the “analgesic activity (≧50% reduction in writhes)” value ([1]; doses of 64, 32, 16, 8, 4 and 2 mg/kg) was “Significant activity”. For the same compound, the “% Inhibition (prolongation of tail-flick response time)” value ([2]; 4 mg/kg) was 5%, the “Response Time (Seconds) 30 Mins., Average” value ([2]; 4 mg/kg) was 6.6 s and the “Response Time (Seconds) 30 Mins.” value ([2]; 4 mg/kg, 4 mg/kg) was 6.2 Seconds (2×) and 6.4 Seconds and 7.4 Seconds. For the same compound, the “Response Time (Seconds) 0 Time” value ([2]; 4 mg/kg) was 6.3 Seconds (2×) and 6.4 Seconds and 6.2 Seconds, the “Response Time (Seconds) 0 Time, Average” value ([2]; 4 mg/kg) was 6.3 s and the “% Inhibition (prolongation of tail-flick response time)” value ([2]; 8 mg/kg) was 3%. For the same compound, the “Response Time (Seconds) 30 Mins., Average” value ([2]; 8 mg/kg) was 6.6 s, the “Response Time (Seconds) 30 Mins.” value ([2]; 8 mg/kg, 8 mg/kg) was 6.4 s and 6.8 s and 6.5 s and 6.7 s and the “Response Time (Seconds) 0 Time” value ([2]; 8 mg/kg) was 6.3 Seconds (2×) and 6.5 Seconds and 6.4 Seconds. The “Response Time (Seconds) 0 Time, Average” value ([2]; 8 mg/kg) was 6.4 s, the “% Inhibition (prolongation of tail-flick response time)” value ([2]; 16 mg/kg) was 2% and the “Response Time (Seconds) 30 Mins., Average” value ([2]; 16 mg/kg) was 6.4 s. The “Response Time (Seconds) 30 Mins.” value ([2]; 16 mg/kg, 16 mg/kg) was 6.3 s and 6.5 s and 6.2 s and 6.4 s, the “Response Time (Seconds) 0 Time” value ([2]; 16 mg/kg) was 6.2 Seconds (2×) and 6.3 Seconds and 6.4 Seconds and the “Response Time (Seconds) 0 Time, Average” value ([2]; 16 mg/kg) was 6.3 s. The “% Inhibition (prolongation of tail-flick response time)” value ([2]; 32 mg/kg) was 19%, the “Response Time (Seconds) 30 Mins., Average” value ([2]; 32 mg/kg) was 7.6 s and the “Response Time (Seconds) 30 Mins.” value ([2]; 32 mg/kg, 32 mg/kg) was 6.7 s and 8.7 s and 6.5 s and 8.4 s. For the same compound, the “Response Time (Seconds) 0 Time” value ([2]; 32 mg/kg) was 6.5 Seconds and 6.3 Seconds (2×) and 6.4 Seconds, the “Response Time (Seconds) 0 Time, Average” value ([2]; 32 mg/kg) was 6.4 s and the “analgesic activity in tail-flick assay (≧50% prolongation)” value ([2]; 4, 8, 16 and 32 mg/kg) was “none of the four doses used showed significant activity”. The “Percentage inhibition of radioligand binding, δ-opiate receptor” value [3] was 79%, the “Percentage inhibition of radioligand binding, μ-opiate receptor” value [4] was 98% and the “test animals exhibiting an increase in respiratory depth” value ([5]; 128 mg/kg IP, Example 17) was 3 of 3. For the same compound, the “test animals exhibiting slight anoxia” value ([5]; 128 mg/kg IP, Example 17) was 3 of 3, the “test animals exhibiting slight tremors” value ([5]; 128 mg/kg IP, Example 17) was 3 of 3 and the Straub tail behaviour ([5]; Example 17 (writhing and tail-flick studies)) was “None of the mice given KRS-5-150 exhibited Straub tail behaviour”. For the same compound, the Straub tail behaviour ([5]; IP, 2 to 64 mg/kg, Example 16) was “did not exhibit Straub tail behaviour”.
